Patent publication US12281304B2, “Compositions and methods for treating and preventing muscular disorders and dystrophies, steroid side effects, and inflammation” (Children's National Medical Center, priority 2018, dated 2025)

Test system: miRNAs in diaphragm muscle of mdx mice
Assay: TaqMan low-density array (TLDA) miRNA profiling of diaphragm, discovery set (prophylactic mdx trial)
Type: in vivo, mouse
Description: Archival muscle samples (diaphragm) from two separate preclinical studies were obtained, with each trial showing a significant benefit from both prednisolone and vamorolone drug treatments (23). Prednisolone was used because it is the active form of prednisone, the current DMD standard of care. The first, “discovery set” of diaphragm muscles was from a prophylactic trial design where 2-week old (postnatal day 15) mdx or wild type control mice received oral dosing for 6 weeks with vehicle (cherry syrup), prednisolone (5 mg/kg), or vamorolone (15 mg/kg) as previously reported (23). The second, “validation set” of diaphragm muscles was from an extended trial in older mice where mdx or wild type mice were subjected to treadmill running to unmask mild phenotypes. Mice in this validation set were treated with either vehicle, prednisolone (5 mg/kg) or vamorolone (45 mg/kg) for four months beginning at two months of age (23). At the endpoint of each trial, diaphragm muscles were harvested and frozen in liquid nitrogen-cooled isopentane.
We extracted total RNA from 5 diaphragm muscles per treatment group in the discovery set of samples from 8-week old mice. RNA was extracted using a modified TRIzol protocol with isopropanol precipitation at −20° C. overnight. This RNA was reverse transcribed to cDNA using a High Capacity cDNA Reverse Transcription Kit with RNase Inhibitor (ThermoFisher; Carlsbad, Calif.), with miRNA-specific Megaplex RT Primers, Rodent Pools Set version 3.0 (ThermoFisher; Carlsbad, Calif.). Levels of each of the miRNAs were profiled in the discovery set using TAQMAN Array Rodent MiRNA A+B Cards Set v3.0 (ThermoFisher; Carlsbad, Calif.).
In the discovery set experiments, levels of each miRNA were quantified in TaqMan low-density arrays using ThermoFisher Cloud software with the Relative Quantification Application (ThermoFisher; Carlsbad, Calif.) tool. Data was analyzed by ANOVA with post-hoc comparison of each group to the mdx vehicle-treated group. […] A P-value of P≤0.05 was set as the significance threshold, without adjustment for multiple comparisons. To reduce false-positive discovery in this setting, an evidence-based approach was used to identify efficacy associated miRNAs where 1) results from the multiple groups were cross-referenced, and 2) all candidate miRNAs identified in this discovery set were then assayed in a separate validation set of mice. For the validation set experiments, levels of each individual miRNA were assayed in samples from a second, independent preclinical trial in adult mdx mice. Data from individual TaqMan Assays was quantified using QuantStudio Real-Time PCR version 1.3 software (Applied Biosystems; Foster City, Calif.). The levels of all miRNAs were normalized to the geometric mean of multiple control genes (60, 70). Comparison of groups was made by ANOVA with Holm-Sidak post-hoc test comparing each group to mdx vehicle.
To visualize behavior of miRNAs within individual mice for each group, heat map images were generated. Heat maps were generated using Rq values of TLDA array data exported from the Relative Quantification Application of the ThermoFisher Cloud software (ThermoFisher; Carlsbad, Calif.) tool. Heat maps of miRNA expression were produced using Hierarchical Clustering Explorer Version 3.5 (at www.cs.umd.edu/hcil/multi-cluster/) produced by the Human Computer Interaction Laboratory (University of Maryland; College Park, Md.).
To examine miRNA expression TaqMan low density qPCR array cards were used to profile approximately 750 miRNAs within diaphragm muscle from a discovery set of mice. Samples for this experiment came from a trial that utilized a prophylactic approach (23). Briefly, mdx mice undergo a stage of peak severity characterized by widespread inflammation and necrosis from approximately 3-8 weeks of age, followed by a recovery stage where mice show milder phenotypes (25). […]

[1] = discovery set diaphragm muscle, mdx mice, Pred 5 mg/kg, Vam 15 mg/kg
[2] = mdx diaphragm, vs untreated mdx, Pred 5 mg/kg, Vam 15 mg/kg

C[C@@H]1C[C@H]2[C@@H]3CCC4=CC(=O)C=C[C@]4(C)C3=CC[C@]2(C)[C@@]1(O)C(=O)CO [vamorolone]
miRNA 142-3p % expression in comparison to mdx vehicle [1]: 65 ± 20 %
miRNA 142-5p % expression in comparison to mdx vehicle [1]: 61 ± 23 %
miRNA 146a % expression in comparison to mdx vehicle [1]: 52 ± 12 %
miRNA 301a % expression in comparison to mdx vehicle [1]: 77 ± 12 %
miRNA 324-3p % expression in comparison to mdx vehicle [1]: 75 ± 13 %
miRNA 455-3p % expression in comparison to mdx vehicle [1]: 61 ± 14 %
miRNA 455-5p % expression in comparison to mdx vehicle [1]: 64 ± 15 %
miRNA 497 % expression in comparison to mdx vehicle [1]: 65 ± 11 %
miRNA 652 % expression in comparison to mdx vehicle [1]: 64 ± 18 %
number of miRNAs significantly changed in dystrophic muscle (mdx diaphragm, 8-week-old mice, oral dosing 6 weeks, prednisolone 5 mg/kg, vamorolone 15 mg/kg, versus untreated mdx, P≤0.05): 41
number of miRNAs significantly increased by treatment (mdx diaphragm, discovery set, prednisolone 5 mg/kg, vamorolone 15 mg/kg, P≤0.05): none of the miRNAs queried in the TLDA cards were significantly increased
expression of the nine efficacy-associated miRNAs elevated in dystrophy (mdx diaphragm, discovery set, versus mdx vehicle): returned towards healthy wild type levels
Rq hsa-let-7i#-002172 [2]: 0.939
Rq hsa-miR-30e-3p-000422 [2]: 0.849
Rq hsa-miR-22#-002301 [2]: 0.78
Rq hsa-miR-140-3p-002234 [2]: 0.903
Rq hsa-miR-143-000466 [2]: 1.29
Rq hsa-miR-154#-000478 [2]: 0.689
Rq hsa-miR-190b-002263 [2]: 0.822
Rq hsa-miR-200c-000505 [2]: 0.453
Rq hsa-miR-206-000510 [2]: 0.983
Rq hsa-miR-213-000516 [2]: 0.839
Rq hsa-miR-214#-002293 [2]: 0.889
Rq hsa-miR-214-000517 [2]: 0.994
Rq hsa-miR-376a#-001287 [2]: 0.845
Rq hsa-miR-455-001280 [2]: 0.637
Rq hsa-miR-744#-002325 [2]: 0.816
Rq mmu-let-7e-002406 [2]: 0.665
Rq mmu-let-7a-000377 [2]: 0.667
Rq mmu-let-7b-000378 [2]: 0.754
Rq mmu-let-7c-1#-002479 [2]: 1.038
Rq mmu-let-7c-000379 [2]: 0.691
Rq mmu-let-7i-002221 [2]: 0.777
Rq mmu-let-7d#-001178 [2]: 0.61
Rq mmu-let-7d-002283 [2]: 0.789
Rq mmu-miR-1-002222 [2]: 0.897
Rq mmu-miR-15a-000389 [2]: 0.719
Rq mmu-miR-16-000391 [2]: 0.781
Rq mmu-miR-18a-002422 [2]: 1.288
Rq mmu-miR-19a-000395 [2]: 0.886
Rq mmu-miR-20a#-002491 [2]: 0.825
Rq mmu-miR-21#-002493 [2]: 0.647
Rq mmu-miR-21-000397 [2]: 0.677
Rq mmu-miR-23b-000400 [2]: 0.675
Rq mmu-miR-25-000403 [2]: 0.867
Rq mmu-miR-26a-000405 [2]: 0.766
Rq mmu-miR-27b-000409 [2]: 0.82
Rq mmu-miR-28-000411 [2]: 0.842
Rq mmu-miR-30e-002223 [2]: 0.847
Rq mmu-miR-30a-000417 [2]: 0.834
Rq mmu-miR-30b-000602 [2]: 0.855
Rq mmu-miR-30c-000419 [2]: 0.818
Rq mmu-miR-31#-002495 [2]: 0.821
Rq mmu-miR-31-000185 [2]: 1.032
Rq mmu-miR-34a-000426 [2]: 0.789
Rq mmu-miR-34b-3p-002618 [2]: 0.798
Rq mmu-miR-34c#-002584 [2]: 0.748
Rq mmu-miR-34c-000428 [2]: 0.811
Rq mmu-miR-99b-000436 [2]: 0.913
Rq mmu-miR-100-000437 [2]: 0.721
Rq mmu-miR-103-000439 [2]: 0.628
Rq mmu-miR-122-002245 [2]: 0.072
Rq mmu-miR-125a-3p-002199 [2]: 0.828
Rq mmu-miR-125b#-002508 [2]: 0.803
Rq mmu-miR-125b-3p-002378 [2]: 0.866
Rq mmu-miR-125b-5p-000449 [2]: 0.682
Rq mmu-miR-126-3p-002228 [2]: 0.809
Rq mmu-miR-126-5p-000451 [2]: 0.812
Rq mmu-miR-127-000452 [2]: 1.107
Rq mmu-miR-128a-002216 [2]: 0.847
Rq mmu-miR-130a-000454 [2]: 0.717
Rq mmu-miR-130b#-002460 [2]: 1.164
Rq mmu-miR-130b-000456 [2]: 0.88
Rq mmu-miR-133a-002246 [2]: 0.996
Rq mmu-miR-134-001186 [2]: 1.353
Rq mmu-miR-136-002511 [2]: 0.942
Rq mmu-miR-138#-002554 [2]: 0.384
Rq mmu-miR-140-001187 [2]: 0.818
Rq mmu-miR-142-3p-000464 [2]: 0.626
Rq mmu-miR-142-5p-002248 [2]: 0.576
Rq mmu-miR-143-002249 [2]: 0.716
Rq mmu-miR-145-002278 [2]: 0.722
Rq mmu-miR-146a-000468 [2]: 0.513
Rq mmu-miR-146b#-002453 [2]: 0.275
Rq mmu-miR-146b-001097 [2]: 0.645
Rq mmu-miR-148a-000470 [2]: 0.496
Rq mmu-miR-148b-000471 [2]: 0.568
Rq mmu-miR-150#-002570 [2]: 0.293
Rq mmu-miR-150-000473 [2]: 0.692
Rq mmu-miR-151-3p-001190 [2]: 0.971
Rq mmu-miR-152-000475 [2]: 0.785
Rq mmu-miR-154-000477 [2]: 0.898
Rq mmu-miR-155-002571 [2]: 0.876
Rq mmu-miR-181a-000480 [2]: 0.773
Rq mmu-miR-181c-000482 [2]: 0.71
Rq mmu-miR-185-002271 [2]: 0.886
Rq mmu-miR-186-002285 [2]: 0.994
Rq mmu-miR-191-002299 [2]: 0.815
Rq mmu-miR-193#-002577 [2]: 0.682
Rq mmu-miR-195-000494 [2]: 0.669
Rq mmu-miR-199a-3p-002304 [2]: 0.722
Rq mmu-miR-199b-001131 [2]: 0.667
Rq mmu-miR-200c-002300 [2]: 0.577
Rq mmu-miR-203-000507 [2]: 0.521
Rq mmu-miR-204-000508 [2]: 0.627
Rq mmu-miR-210-000512 [2]: 0.746
Rq mmu-miR-214-002306 [2]: 0.842
